Assay results: the NIST ThermoML archive (doi:10.1021/je901079k)

Experiment: xn = mol fraction of the nth substance listed
Conditions: Maximal bubble pressure

F.[F-].[Na+] [sodium hydrogen fluoride] + [F][Al]([F])[F]
Conditions | surface tension liquid-gas [mN/m]
1130.2 K, x1 = 0.6 | 92.04
1159.2 K, x1 = 0.6 | 89.61
1184.2 K, x1 = 0.6 | 87.51
1215.2 K, x1 = 0.6 | 84.94
1239.7 K, x1 = 0.6 | 82.84
1274.2 K, x1 = 0.6667 | 105.93
1297.2 K, x1 = 0.6667 | 104.59
1297.2 K, x1 = 0.7143 | 121.35
1299.2 K, x1 = 0.75 | 132.71
1318.2 K, x1 = 0.7143 | 118.25
1318.2 K, x1 = 0.75 | 130.09
1319.2 K, x1 = 0.6667 | 103.14
1329.2 K, x1 = 0.7143 | 116.62
1339.2 K, x1 = 0.75 | 127.18
1340.2 K, x1 = 0.6667 | 101.57
1348.2 K, x1 = 0.7143 | 113.82
1368.2 K, x1 = 0.7143 | 110.87
1370.2 K, x1 = 0.75 | 122.89
